IC50 data for 17 compounds are collected here from patent US7569572B2, “Pyrazolo[4,3-D]pyrimidines” (Pfizer Inc, priority 2004, dated 2009).

Where a name gives a salt, the structure may show the parent alone.

As usually defined, the IC50 is the midpoint of a concentration-inhibition curve. Read a high IC50 as weaker potency.

The assay deals with T1, human platelet PDE5 (Homo sapiens, UniProt O76074).
T1 construct: utilizes PDE5 isolated from human platelets; from tissue; host or cells: human platelets
The assay is described as follows: Method A: PDE-5 Inhibition Scintillation Proximity Assay (SPA) - Human Platelet. In kind it is biochemical. Conditions: cGMP substrate 500 nM, PDE5 isolated from human platelets. The text has this:
Method A: PDE-5 Inhibition Scintillation Proximity Assay (SPA)—Human Platelet
The assay measures the inhibition of human platelet PDE5 enzyme activity by a test compound in an in vitro assay that utilizes PDE5 isolated from human platelets. The PDE5 enzyme can be isolated from platelets essentially by a modification of the method of Thompson, W J et al.; Biochemistry 18(23), 5228-5237, 1979, as described by Ballard S A et al.; J. Urology 159(6), 2164-2171, 1998. PDE5 catalyzes the hydrolysis of [^3H]cGMP to the 5′ nucleotide [^3H]GMP. [^3H]GMP binds to yttrium silicate SPA beads and is detected by scintillation counting. […] The inhibition of enzyme activity is calculated relative to total PDE5 activity of uninhibited controls.
PDE5 IC50 Assay: 96-Well Microtiter Plate Format
Buffer A: 20 mM Tris-HCl, 5 mM MgCl2, pH 7.4
Buffer B: 2 mg/ml BSA in Buffer A (enzyme buffer)
cGMP substrate: Final concentration of 500 nM in assay
The amount of ^3H-labeled substrate added depends upon the specific activity of [^3H]cGMP, and it is diluted with a 10 mM stock of cold cGMP in Buffer A for a final substrate concentration of 500 nM in the assay.
PDE enzyme: Prepared in Buffer B. The dilution factor is determined by enzyme activity.
SPA beads: 20 mg/ml suspension prepared in dH2O.
Stocks of standard and test compounds are prepared at 5 mM in 100% DMSO. Compounds are serially diluted in separate dilution plates using a 10-point ½ log dilution format. 2 μl of the compound dilutions are added in duplicate to the wells of the assay plate; 2 μl of 100% DMSO are added to designated control wells. 25 μl of Buffer A are added to all wells. 25 μl of Buffer B are added to the negative control wells, and 25 μl of enzyme are added to the remaining wells. 50 μl of substrate are added to each well. Plates are sealed and incubated for 60 minutes on a plate shaker at 30 C. 50 μl of SPA beads are added to stop the reaction. The plates are again sealed and shaken for 15 minutes to allow the beads to bind the GMP product. The beads are allowed to settle for 30 minutes and then read on a NXT TopCount. Data is analyzed with the ECADA application. In this analysis, % inhibition is calculated: (mean maximum−compound value/(mean maximum−mean minimum)×100. IC50s are determined from sigmoid dose-response curves of enzyme activity vs compound concentration.
For orientation: In a scintillation proximity assay essentially only radioactivity close to the scintillant gives light.

Compound `CCOCCn1nc(CNC(=O)CN(C)C)c2nc(N(C)C)nc(Nc3cc(C)ccn3)c21` [Example 1, 2-Dimethylamino-N-[5-dimethylamino-1-(2-ethoxyethyl)-7-(4-methylpyridin-2-ylamino)-1H-pyrazolo[4,3-d]pyrimidin-3-ylmethyl]acetamide] gave an IC50 of 1.12 nM. In turn, `CCOCCn1nc(CNS(C)(=O)=O)c2nc(N(C)C)nc(Nc3cc(C)ccn3)c21` [Example 2, N-[5-dimethylamino-1-(2-ethoxyethyl)-7-(4-methylpyridin-2-ylamino)-1H-pyrazolo[4,3-d]pyrimidin-3-ylmethyl]methanesulfonamide] showed an IC50 of 1.25 nM. This IC50 and that of the compound before are within 1.5-fold of each other. The figure for `CCNc1nc(Nc2cc(C)ccn2)c2c(n1)c(CNS(C)(=O)=O)nn2CCOCC` [Example 3] is 1.1 nM; for `CCOCCn1nc(CNC(=O)CO)c2nc(N(C)C)nc(Nc3cc(C)ccn3)c21` [Example 4, N-[5-dimethylamino-1-(2-ethoxyethyl)-7-(4-methylpyridin-2-ylamino)-1H-pyrazolo[4,3-d]pyrimidin-3-ylmethyl]-2-hydroxyacetamide] it is 0.77 nM.

`CCNc1nc(Nc2cc(C)ccn2)c2c(n1)c(CNC(=O)CO)nn2CCOCC` [Example 5] returned a half-maximal inhibitory concentration (IC50) of 0.58 nM. The figure for `CCOCCn1nc(CNC(C)=O)c2nc(N(C)C)nc(Nc3cc(C)ccn3)c21` [Example 6, N-[5-dimethylamino-1-(2-ethoxyethyl)-7-(4-methylpyridin-2-ylamino)-1H-pyrazolo[4,3-d]pyrimidin-3-ylmethyl]acetamide] is 0.39 nM. Regarding `CCOCCn1nc(CNC(C)=O)c2nc(NC)nc(Nc3cc(C)ccn3)c21` [Example 7], the concentration for half-maximal inhibition (IC50) came out at 9 nM. As to `CCNc1nc(Nc2cc(C)ccn2)c2c(n1)c(CNC(C)=O)nn2CCOCC` [Example 8, N-[1-(2-ethoxyethyl)-5-ethylamino-7-(4-methylpyridin-2-ylamino)-1H-pyrazolo[4,3-d]pyrimidin-3-ylmethyl]acetamide], the midpoint of inhibition, the IC50, lay at 0.59 nM. Next, `CCOCCn1nc(CNC(=O)CC)c2nc(N(C)C)nc(Nc3cc(C)ccn3)c21` [Example 9, N-[5-dimethylamino-1-(2-ethoxyethyl)-7-(4-methylpyridin-2-ylamino)-1H-pyrazolo[4,3-d]pyrimidin-3-ylmethyl]propionamide]: 0.33 nM; `CCOCCn1nc(CNC(=O)CC)c2nc(NC)nc(Nc3cc(C)ccn3)c21` [Example 10]: 2.5 nM; `CCNc1nc(Nc2cc(C)ccn2)c2c(n1)c(CNC(=O)CC)nn2CCOCC` [Example 11, N-[1-(2-ethoxyethyl)-5-ethylamino-7-(4-methylpyridin-2-ylamino)-1H-pyrazolo[4,3-d]pyrimidin-3-ylmethyl]propionamide]: 0.53 nM. Next, `CCOCCn1nc(CNC)c2nc(N(C)C)nc(Nc3cc(C)ccn3)c21` [Example 12]: 4.5 nM. In turn, `CCOCCn1nc(CN(C)C(C)=O)c2nc(N(C)C)nc(Nc3cc(C)ccn3)c21` [Example 13] returned an IC50 of 0.4 nM.

`CCOCCn1nc(CN(C)C(C)=O)c2nc(NC)nc(Nc3cc(C)ccn3)c21` [Example 14]: half-maximal inhibition (IC50) required 5.5 nM. In turn, `CCNc1nc(Nc2cc(C)ccn2)c2c(n1)c(CN(C)C(C)=O)nn2CCOCC` [Example 15, N-[1-(2-ethoxyethyl)-5-ethylamino-7-(4-methylpyridin-2-ylamino)-1H-pyrazolo[4,3-d]pyrimidin-3-ylmethyl]-N-methylacetamide] registered a concentration for half-maximal inhibition (IC50) of 0.48 nM.

On to `CCOCCn1nc(CN(C)C(C)=O)c2nc(N(C)C)nc(Nc3ccncn3)c21` [Example 16, N-[5-Dimethylamino-1-(2-ethoxyethyl)-7-(pyrimidin-4-ylamino)-1H-pyrazolo[4,3-d]pyrimidin-3-ylmethyl]-N-methylacetamide], for which the half-inhibitory concentration (IC50) is 5.9 nM. Next, `CCOCCn1nc(CNC)c2nc(N(C)C)nc(Nc3cnccn3)c21` [Example 17, 1-(2-ethoxyethyl)-N^5,N^5-dimethyl-3-(methylaminomethyl)-N^7-(pyrazin-2-yl)-1H-pyrazolo[4,3-d]pyrimidine-5,7-diamine hydrochloride]: > 100 nM.
